Experimental data published in paper PMC8424629, “Chemical “Butterfly Effect” Explaining the Coordination Chemistry and Antimicrobial Properties of Clavanin Complexes” (Inorganic Chemistry, 2021).
≈ marks a conversion by molar mass, not a printed value. Read-outs that look alike come from different tables or passages of the source.

Assays:
[1] = system: Candida albicans ATCC 10231; assay: microbe, parasite or virus in culture; conditions: ATCC10231, 24 h
[2] = system: Escherichia coli ATCC 25922; assay: microbe, parasite or virus in culture; conditions: ATCC25922, 24 h
[3] = system: Enterococcus faecalis ATCC 29212; assay: microbe, parasite or virus in culture; conditions: ATCC29212, 24 h
[4] = system: MRSA Staphylococcus aureus ATCC 43300; assay: microbe, parasite or virus in culture; conditions: 24 h
[5] = system: Pseudomonas aeruginosa ATCC 27853; assay: MIC, broth microdilution, reference strain; type: cell-based; conditions: ATCC27853, microdilution 0.5-256 µg/mL, TSB, 24 h, 37 °C, OD 580 nm
[6] = system: Candida albicans ATCC 10231; conditions: ATCC 10231, 24 h
[7] = system: MRSA Staphylococcus aureus ATCC 43300; conditions: ATCC 43300, 24 h
[8] = type: physicochemical
Description: (§1) All peptides ([…]-COOH, […]-COOH, […]
(§2) were purchased from KareBay Biochem (USA) (certified purity: 98 %) and were used as received.
(§3) The carbonate-free stock solutions of 0.1 M NaOH were purchased from Sigma-Aldrich and then potentiometrically standardized with the primary standard potassium hydrogen phthalate (99.9 % purity). […]
(§4) Stability constants for proton, Zn(II) and Cu(II) complexes were calculated from pH -metric titration curves carried out over the pH range 2-11 at T = 298 K in water solution of 4 mM HClO 4 and ionic strength 40 mM (SDS), using a total volume of 3 ml. The potentiometric titrations were performed using a Metrohm Titrando 905 titrator and a Mettler Toledo InLab Micro comb ined pH electrode. The thermostabilized glass -cell was equipped with a magnetic stirring system, a microburette delivery tube and an inlet –outlet tube for argon.
(§5) Solutions were titrated with 0.1 M carbonate-free NaOH. The electrodes were calibrated daily f or hydrogen ion concentration by titrating HClO 4 with NaOH under the same experimental conditions as above. The purities and the exact concentrations of the ligand solutions were determined by the Gran method. 1 The ligand concentration was 0.5 mM. The Zn(II) and Cu(II) to ligand ratio was 1 : 1.
(§6) The standard potential and the slope of the electrode couple were computed by means of Glee 2 program. The HYPERQUAD 20063 program was used for the stability constant calculations. The standard deviations were computed by HYPERQUAD 2006 and refer to random errors only. The constants for the hydrolytic Zn(II ) species

[9] = type: binding
Description: as §1, §2, §3, §4, §5, §6

[10] = system: Escherichia coli ATCC 25922; conditions: ATCC 25922, 24 h
[11] = system: Enterococcus faecalis ATCC 29212; conditions: ATCC 29212, 24 h
[12] = potentiometry pH 2-11, 298 K, 4 mM HClO4, I = 40 mM SDS, ligand 0.5 mM, SD in parentheses
[13] = potentiometry, 298 K, I = 40 mM SDS, Cu(II):L 1:1, 0.5 mM, SD in parentheses
[14] = potentiometry, 298 K, I = 40 mM SDS, Zn(II):L 1:1, 0.5 mM, SD in parentheses

C[C@@H]1[C@H](O)[C@@H](C)/C=C/C=C/C=C/C=C/C=C/C=C/C=C/[C@H](O[C@@H]2O[C@H](C)[C@@H](O)[C@H](N)[C@@H]2O)C[C@@H]2O[C@](O)(C[C@@H](O)C[C@@H](O)[C@H](O)CC[C@@H](O)C[C@@H](O)CC(=O)O[C@H]1C)C[C@H](O)[C@H]2C(=O)O [amphotericin B]
MIC [1]: 1 µg/mL (≈ 1.08 µM)

CNC(C)C1CCC(N)C(OC2C(N)CC(N)C(OC3OCC(C)(O)C(NC)C3O)C2O)O1 (stereo not shown) [gentamicin]
MIC [2]: 2 µg/mL (≈ 4.19 µM)

C[C@H]1COc2c(N3CCN(C)CC3)c(F)cc3c(=O)c(C(=O)O)cn1c23 [levofloxacin]
MIC [3]: 4 µg/mL (≈ 11.1 µM)
MIC [4]: 1 µg/mL (≈ 2.77 µM)
MIC [5]: 1 µg/mL (≈ 2.77 µM)

H-AFKLLGRIIHHVGNFVYGFSHVF-OH [Clavanin D]
MIC [6]: 16 µg/mL
MIC [7]: 128 µg/mL
pKa, species H2L [8]: 10.08
pKa, species H3L [8]: 8.68
pKa, species H4L [8]: 7.81
pKa, species H5L [8]: 7.24
pKa, species H6L [8]: 5.26
pKa, species HL [8]: 11.13
log β H2L [8, 12]: 21.21 (4)
log β H3L [8, 12]: 29.89 (5)
log β H4L [8, 12]: 37.70 (5)
log β H5L [8, 12]: 44.94 (5)
log β H6L [8, 12]: 50.20 (5)
log β HL [8, 12]: 11.13 (6)
pKa, line CuH2L [9]: 6.95
pKa, line CuH3L [9]: 6.00
pKa, line CuH4L [9]: 5.23
pKa, line CuH-1L [9]: 9.92
pKa, line CuH-2L [9]: 10.54
pKa, line CuH-3L [9]: 11.91
pKa, line CuHL [9]: 7.94
pKa, line CuL [9]: 8.79
pKa, line ZnH2L [9]: 8.22
log β CuH2L [9, 13]: 30.38 (2)
log β CuH3L [9, 13]: 37.33 (2)
log β CuH4L [9, 13]: 43.33 (1)
log β CuH5L [9, 13]: 48.56 (3)
log β CuH-1L [9, 13]: 3.73 (3)
log β CuH-2L [9, 13]: -6.81 (4)
log β CuH-3L [9, 13]: -18.72 (1)
log β CuHL [9, 13]: 22.44 (3)
log β CuL [9, 13]: 13.65 (3)
log β ZnH2L [9, 14]: 25.94 (2)
log β ZnH3L [9, 14]: 34.16 (3)
log β ZnH5L [9, 14]: 47.63 (12)
log β ZnL [9, 14]: 6.73 (14)
MIC [10]: 64 µg/mL
MIC [11]: 128 µg/mL
